Reference: patent publication US8637090B2, “Gallium formulation for the treatment and prevention of infectious diseases” (Aridis Pharmaceuticals, priority 2009, dated 2014)
Where two headings read alike, the source gives them in different places.

How the values were obtained:
Pa = conditions: mouse; nasal instillation of a bolus of liquid; also under in vivo Pa biofilm colonization conditions; cited from earlier work
[1] = tested on: Pseudomonas aeruginosa (Pa); conditions: against Pa; cited from earlier work
[2] = Crystallinity of spray dried gallium powders by powder X-ray diffraction; format: physicochemical; conditions: qualitative analysis of crystallinity, XRD 5° to 75° 2θ
Protocol: Crystallinity of the spray dried gallium powders was determined using a Philips X-Pert Pro MPD powder diffractometer. The radiation used was generated by a Cu Kα source with a wavelength of 1.5406 Å at 45 kV and 40 mA. Samples were scanned from 5° to 75° 2θ at a scanning rate of 1.2° 2θ/min using a slit width of 0.25°. Particular emphasis was placed on determining the effects of the various excipients on the crystallinity of the spray dried particles. The composition of the gallium formulations examined, as well as the residual moisture content and a qualitative analysis of crystallinity are shown in Table 8. X-ray diffractometer (XRD) scans reveal that spray dried gallium nitrate is amorphous as are mannitol and L-leucine (FIG. 5). Sodium citrate, however, is crystalline and the crystallinity is maintained even in the presence of other excipients.

B. anthracis 7702 cells = format: cell-based; conditions: 1:1 gallium-to-citrate, approximately 20 hours of growth

In the case of O=[N+]([O-])[O-].O=[N+]([O-])[O-].O=[N+]([O-])[O-].[Ga+3] [Gallium, gallium nitrate], the “protection after lethal i.t. Pa inoculation” value (Pa) is given as “good protection”, the “bactericidal concentration (MBC)” value [1] is given as “approximately 0.7 μg/mL” and the “minimum inhibitory concentration (MIC90)” value [1] is given as “approximately 0.7 μg/mL”. For the same compound, the Crystalline/Amorphous [2] was “amorphous”, the OD600 nm (B. anthracis 7702 cells; Gallium concentration 6.8 μM) was 0.000 and the OD600 nm (B. anthracis 7702 cells; Gallium concentration 23.3 μM) was 0.000. It also gave an OD600 nm (B. anthracis 7702 cells; Gallium concentration 27.1 μM) of 0.001, an OD600 nm (B. anthracis 7702 cells; Gallium concentration 88.9 μM) of 0.003 and an OD600 nm (B. anthracis 7702 cells; Gallium concentration 614.8 μM) of 0.000. The OD600 nm (B. anthracis 7702 cells; Gallium concentration 1709.9 μM) was 0.000.
